According to US10227356B2, “Compounds, compositions and methods for inhibiting CNKSR1” (Phusis Therapeutics, Inc., priority 2015, dated 2019):
Where two headings read alike, the source gives them in different places.

Columns and labels:
[1] = molecular target: T1, AKT1 PH-domain (Homo sapiens, UniProt P31749); test: Surface plasmon resonance binding to AKT PH-domain; conditions: SPR; ND = no binding determined
T1 construct: The PH-domain His-fusion proteins (CNK1 and AKT1) were expressed and immobilized on a NTA chip; made in house
Protocol: All interaction analyses were done with a Biacore T200 Control Software v3.2, and BIAevaluation v2.0 analysis software (Biacore). The PH-domain His-fusion proteins (CNK1 and AKT1) were expressed and immobilized on a NTA chip to a level of 10,000 response units or less. Small molecule analytes at concentrations ranging from 50 μM to 0.010 μM were injected at a high flow rate (30 μL/min). DMSO concentrations in all samples and running buffer were 1-5% (v/v) […]
A commercially available docking package GLIDE was chosen as the docking algorithm used to select and optimize compounds, providing a GlideScore as a rough estimate of binding affinity that was used to rank and select the best compounds. Additionally, ligand-based approaches provided an alternative to structure based drug discovery. Ligand-based virtual screening methodologies can take into account shape and electrostatics and the pharmacophoric features (acceptor, donor, hydrophobic, aromatic, etc.) of its functional groups. Inositol tetraphosphate (IP4) binding to the PH-domain of CNKSR1 provided a good starting point for shape screening. Both structure-based and ligand-based approaches were used to find novel compounds and to refine and improve lead compounds (Tables 2, 3 and 4). SPR interaction analyses for the compounds were performed with a Biacore T200, using BiacoreT200 Control Software v3.2 and BIAevaluation v2.0analysis software (Biacore).

[2] = molecular target: T2, PH-domain of CNKSR1 (Homo sapiens, UniProt Q969H4); test: Surface plasmon resonance binding to CNK PH-domain
T2 construct: The PH-domain His-fusion proteins (CNK1 and AKT1) were expressed and immobilized on a NTA chip; made in house
T2 sequence (Q969H4 403-502 limits assumed): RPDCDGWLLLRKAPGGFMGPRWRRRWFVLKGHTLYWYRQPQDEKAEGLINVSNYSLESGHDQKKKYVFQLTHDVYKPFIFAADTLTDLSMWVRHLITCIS
Text: The PH-domain His-fusion proteins (CNK1 and AKT1) were expressed and immobilized on a NTA chip to a level of 10,000 response units or less.
Additionally, ligand-based approaches provided an alternative to structure based drug discovery.

[3] = test system: mut-KRas NSCLC lines; test: Proliferation assay 2D, mut-KRas NSCLC lines; format: cell-based; conditions: for In vitro IC50 against mut-KRas NSCLC 2D ave: mean of 12 mut-KRas NSCLC lines; for IC50: range across mut-Kras cell lines, read-out: In vitro IC50 against mut-KRas NSCLC 2D range
Protocol: A panel of 30 cell lines and an extensive characterization were obtained from Dr. John Minna (UTSW). All cell lines were cultured in RPMI 1640 with 10% FBS. Cells were treated with concentrations of agents at concentrations 0.01 to 50 μM and evaluated as described above. IC50's were determined using Excelfit.

[4] = Pharmacokinetics (PK); format: in vivo; parameters: AUC: concentration or dose not given beside the values; conditions: for half-life: read-out: PK T1/2 (converted)
[5] = test system: mut-KRAS cells; test: Proliferation assay, mut-KRAS cell lines; format: cell-based; conditions: read-out: Ave IC50 mut-KRAS
Protocol: (§1) These cells were cultured in McCoys media with 10% FBS to 80% confluency. […] Cells were incubated for 72 hours with the drugs, and then viability was assessed using an MTS viability assay. Cells were exposed to MTS reagent (Promega) dissolved in PBS (Hyclone) at a concentration of 200 μL reagent/mL media for 2 hours. Absorbance was then read at 490 nm, and viability was expressed as a percentage normalized between the negative control (no cells plated) and the condition of cells with no drug added (100% viability) normalized as the upper limit of viability. A panel of 30 cell lines and an extensive characterization were obtained from Dr. John Minna (UTSW). All cell lines were cultured in RPMI 1640 with 10% FBS. […] IC50's were determined using Excelfit.

[6] = test system: wt-KRAS cells; test: Proliferation assay, wt-KRAS cell lines; format: cell-based; conditions: read-out: Ave IC50 wt-KRAS
Protocol: as §1

[7] = molecular target: T3, CNK1 (Homo sapiens, UniProt Q969H4); test: SPR competition, CNK1 binding to PIP3; conditions: read-out: SPR Competition Percent inhibition of CNK1 binding to PIP3 at 50 μM, X = none
T3 construct: The PH-domain His-fusion proteins (CNK1 and AKT1) were expressed and immobilized on a NTA chip; made in house
T3 sequence (Q969H4 403-502 limits assumed): T2 sequence (Q969H4 403-502 limits assumed)

[8] = test system: mut-KRas NSCLC lines; test: Proliferation assay 3D, mut-KRas NSCLC lines; format: cell-based; conditions: for In vitro IC50 against mut-KRas NSCLC 3D ave: mean of 6 mut-KRas NSCLC lines; for IC50: range across mut-Kras cell lines, read-out: In vitro IC50 against mut-KRas NSCLC 3D range
Protocol: The plates were optimized for the best cell density and found to be 20,000 cells per mL. The lid was removed from a 96-well Greiner plate and turned upside down. 20 μL of the 20,000 cells per mL suspension was then added directly into the middle of the circles found on the lid of the 96-well plate forming a small drop. 100 μL of media was added into the corresponding wells, used to maintain the […] of the drops, and the lid was flipped back over carefully placing it back onto the plate without disturbing the drop. The plate was then placed into the incubator for 3 days to allow the cells to migrate to the bottom of the drop due to gravity. After 3 days, […] of media was added to the corresponding wells a SCIVAX 96-well plate. The lid from the Greiner 96-well plate was removed and placed onto the SCIVAX plate allowing the drop to come in contact with the media and placed back into the incubator. After one hour, 200 μL of media was removed from the corresponding wells carefully without disturbing the spheroid and imaged.

[9] = Summary table for CNKSR1 inhibitors, read-out: SPR Kd

T1 sequence (P31749 5-108 limits assumed): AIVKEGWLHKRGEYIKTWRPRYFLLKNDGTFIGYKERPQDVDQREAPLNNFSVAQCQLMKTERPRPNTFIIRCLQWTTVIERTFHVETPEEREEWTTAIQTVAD

SMILES | In vitro IC50 against mut-KRas NSCLC 2D ave [3] [µM] | IC50 [3] [µM] | half-life ([4]; in vivo) [h] | IC50 [5] [µM] | IC50 [6] [µM] | IC50 [8] [µM] | AUC ([4]; in vivo) [ng·h/mL] | other results
COc1c(/C=C/C(=O)O)cc(NS(=O)(=O)c2cccs2)c2c1OCO2 [Compound 84, (E)-3-(4-methoxy-7-(thiophene-2-sulfonamido)benzo[d][1,3]dioxol-5-yl)acrylic acid] | – | – | – | – | – | – | – | AKT KD [1]: No binding
CCOC(=O)CCc1cc(NS(=O)(=O)c2cccs2)c2c(c1OC)OCO2 [Compound 85, ethyl 3-(4-methoxy-7-(thiophene-2-sulfonamido)benzo[d][1,3]dioxol-5-yl)propanoate] | – | – | – | – | – | – | – | Kd ([2]; SPR, ND = no binding determined, read-out: CNK KD): > 500 µM; Kd [1]: > 500 µM
CCOC(=O)/C=C/c1cc(NS(=O)(=O)c2cccs2)c2c(c1OC)OCO2 [Compound 86, (E)-ethyl 3-(4-methoxy-7-(thiophene-2-sulfonamido)benzo[d][1,3]dioxol-5-yl)acrylate] | – | – | – | – | – | – | – | Kd [1]: > 500 µM
CN1CC(=O)N(/C=C/c2cc(NS(=O)(=O)c3cccs3)c3c(c2O)OCO3)C1=O [Compound 91, (E)-N-(7-hydroxy-6-(2-(3-methyl-2,5-dioxoimidazolidin-1-yl)vinyl)benzo[d][1,3]dioxol-4-yl)thiophene-2-sulfonamide] | 23 | 6 to 35 | 1 | – | – | – | – | Kd [2, 9]: 36 µM; Cmax ([4]; in vivo, printed in the T1/2/AUC column): 2200 nM
COc1c(/C=C2\SC(=S)NC2=O)c(NS(=O)(=O)c2cccs2)cc2c1OCO2 [Compound 103] | 25 | 5.1 to 60 | – | – | – | – | – | IC50 ([5]; average over mut-KRAS lines): 14.7 µM; IC50 ([6]; average over wt-KRAS lines): 95 µM
O=c1ccoc2c3c(cc(NS(=O)(=O)c4cccs4)c12)OCO3 [Compound 104] | – | – | – | – | – | – | – | IC50 ([5]; average over mut-KRAS lines): 16.6 µM; IC50 ([6]; average over wt-KRAS lines): 100 µM; inhibition at 50 µM [7]: 0%
CCNC(=O)/C=C/c1c(NS(=O)(=O)c2cccs2)cc2c(c1OC)OCO2 [Compound 105] | 6.7 | 1.6 to 94 | – | 10 | 100 | – | – | –
CNC(=O)/C=C/c1c(NS(=O)(=O)c2cccs2)cc2c(c1OC)OCO2 [Compound 106] | 16.3 | 0.8 to 100 | 1.7 | 8.4 | 68 | 0.096 to 75 | 7000 | In vitro IC50 against mut-KRas NSCLC 3D ave [8]: 8.4 µM
COc1c(/C=C/C(N)=O)c(NS(=O)(=O)c2cccs2)cc2c1OCO2 [Compound 107] | 19.5 | 1 to 100 | 3.2 | 1.5 | 100 | 0.82 to 75 | 34500 | In vitro IC50 against mut-KRas NSCLC 3D ave [8]: 1.5 µM
COc1c(/C=C/C(=O)NCc2ccco2)c(NS(=O)(=O)c2cccs2)cc2c1OCO2 [Compound 108] | 35 | 0.2 to 100 | 1 | 5.2 | 100 | – | 3410 | –
COc1c(/C=C/C(=O)N2CCOCC2)c(NS(=O)(=O)c2cccs2)cc2c1OCO2 [Compound 109] | 18.9 | 0.1 to 100 | 0.75 | 6.5 | 100 | – | 1200 | –
COc1c(/C=C/C(=O)NC2CC2)c(NS(=O)(=O)c2cccs2)cc2c1OCO2 [Compound 110] | 15.7 | 4.3 to 100 | – | – | – | 0.23 to 75 | – | Kd [2, 9]: < 50 µM; IC50 ([5]; average over mut-KRAS lines): 1.2 µM; In vitro IC50 against mut-KRas NSCLC 3D ave [8]: 1.2 µM; IC50 ([6]; average over wt-KRAS lines): 35.7 µM; inhibition at 50 µM [7]: 0%
COc1c(/C=C/C(=O)N2CCN(C)CC2)c(NS(=O)(=O)c2cccs2)cc2c1OCO2 [Compound 111] | 19.2 | 0.6 to 100 | 1 | 4.1 | 33.7 | 0.12 to 13.2 | 30000 | In vitro IC50 against mut-KRas NSCLC 3D ave [8]: 4.1 µM
COc1c(/C=C/C(=O)NCC(C)O)c(NS(=O)(=O)c2cccs2)cc2c1OCO2 (centres unmarked) [Compound 112] | 65 | 19 to 100 | – | 25 | 100 | – | – | –
CCOC(=O)/C=C/c1c(NS(=O)(=O)c2cccs2)cc2c(c1OC)OCCO2 [Compound 113] | 25 | 13.7 to 100 | – | 55.1 | 100 | – | – | –
COc1c(/C=C/C(=O)O)c(NS(=O)(=O)c2cccs2)cc2c1OCCO2 [Compound 114] | 57 | 12.1 to 100 | – | 85 | 100 | – | – | –
COc1c(/C=C/CO)c(NS(=O)(=O)c2cccs2)cc2c1OCCO2 [Compound 115] | 11.2 | 1.6 to 100 | – | 39.1 | 100 | – | – | –
CCOC(=O)/C=C/c1cc(NS(=O)(=O)c2cccs2)c2c(c1OC)OCCO2 [Compound 116] | – | – | – | – | – | – | – | IC50 ([5]; average over mut-KRAS lines): 100 µM
CCOC(=O)/C=C/c1c(NS(=O)(=O)c2cccs2)cc2c(c1OC)OCO2 [Compound 151, ethyl 3-[4-methoxy-6-(thiophene-2-sulfonamido)-2H-1,3-benzodioxol-5-yl]prop-2-enoate] | 18 | 0.5 to 100 | 0.5 | – | – | 0.025 to 2.7 | – | In vitro IC50 against mut-KRas NSCLC 3D ave [8]: 0.69 µM; PK metabolism (remark in place of AUC) ([4]; AUC NA): rapid
COc1c(/C=C/CO)c(NS(=O)(=O)c2cccs2)cc2c1OCO2 [Compound 152, N-{6-[(1E)-3-hydroxyprop-1-en-1-yl]-7-methoxy-2H-1,3-benzodioxol-5-yl}thiophene-2-sulfonamide] | 20 | 0.1 to 100 | 3.1 | – | – | 0.015 to 0.26 | 7000 | –
